Measured values: US20070021415A1, “Pharmaceutical composition for the prevention or treatment of cerebral oedemas” (priority 2005, published 2007)
Like-named read-outs stand apart in the source and are kept apart here.

What was measured:
[1] = tested on: cerebral oedema induced by triethyl tin (TET) in the rat; settings: in vivo
[2] = rat, in vivo; for weight gain (in words): po, 50 mg/kg/day
[3] = tested on: cerebral oedema induced by triethyl tin (TET) chloride in the rat; settings: administered during the intoxication with tin, measured after 5 days (Linee et al., 1984); cited from earlier work

Molecule: CC1(c2ccccc2)OC(N)=Nc2ccc(Cl)cc21 (stereo not drawn) [desethyl-etifoxine, 2-amino-6-chloro-4-methyl-4-phenyl-4H-[3,1]benzoxazine]
- Variation in percentage [1]: +0.39%
- weight of the dried brain ([1]; po): do not modify this parameter significantly
- Variation in percentage ([1]; po, 50 mg/kg/day): −0.09%
- weight gain (in words) [2]: does not disrupt the weight gain

Molecule: CCNC1=Nc2ccc(Cl)cc2C(C)(c2ccccc2)O1.Cl (stereo not drawn) [etifoxine, 6-chloro-2-ethylamino-4-methyl-4-phenyl-4H-[3,1]benzoxazine hydrochloride]
- weight of the dried brain ([1]; po): do not modify this parameter significantly
- Variation in percentage ([1]; po, 50 mg/kg/day): −0.30%
- Variation in percentage ([1]; po, 100 mg/kg/day): −0.07%
- Body weight in grams (mean ± s.e.m.) [2]: 251 ± 4 grams
- weight gain (in words) [2]: does not disrupt weight gain

Molecule: CC[C@]12CCCN3CCc4c(n(c5ccccc45)[C@@](O)(C(=O)OC)C1)[C@@H]32 [vincamine]
- activity in the preventive protocol [3]: active

Molecule: (−)eburnamonine
- activity in the preventive protocol [3]: active

Molecule: dihydroergotoxin
- activity in the preventive protocol [3]: active
